{
  "source": "patent US12441732B2",
  "about": "“Potassium salt crystal form B of phosphodiesterase type 5 inhibitor, and preparation method and use therefor” (Guangzhou Huazhen Pharmaceutical Co., Ltd, priority 2019, dated 2025)",
  "key": {"[1]": {"assay": "Pharmacokinetic experiment in rats after gavage", "format": "in vivo", "conditions": "male SD rats, gavage 2 mg·kg^−1", "experimental": "After 6 healthy male SD rats were fasted and drank water freely for 12 h, the rats was administered by gavage with the potassium salt crystal form B prepared in Embodiment 1 at 2 mg·kg^−1, and blood was taken from the Bulbus oculi venous plexus at 0.2 h, 0.5 h, 1 h, 1.5 h, 2 h, 4 h, 6 h and 8 h after administration. A solution of acetonitrile:water (1:1) was added, and centrifuging was conducted to take the supernatant for chromatographic analysis, at conditions: a chromatographic column: Thermo Fisher Hypersil gold column (3 μm, 20 mm×2.1 mm), an injection volume of 10 μL, a flow rate of 0.3 mL/min, a column temperature of 40° C., a mobile phase of water (1% formic acid) and methanol, gradient elution: methanol 10% (0 min); 10% (1 min); 90% (4 min); 90% (8 min); 10% (9 min), and with mass spectrometry conditions: multiple reaction monitoring (MRM), electrospray ionization (ESI), retention time (Dwell Time) of 200 ms, detection ion m/z 448.0-347.8. The data of blood drug concentration was analyzed with Winnolin6.3 software to obtain the pharmacokinetic parameters, thereby forming the mean blood drug concentration-time curve, as shown in FIG. 19."}, "UIRI model mice": {"tested_on": "UIRI model mice", "assay": "Unilateral renal ischemia-reperfusion mouse model (UIRI model) of renal fibrosis", "format": "in vivo, BALB/c mice", "conditions": "5 mg·kg^−1·d^−1 gavage, 10 days", "from_the_text": "Fifteen male BALB/c mice were randomly divided into: a Sham group (a sham-operation group) including 5 mice, and a surgical modeling group including 10 mice. Surgical method: mice were anesthetized and incised on the left side of the abdomen to expose the kidney, and the renal pedicle was bluntly dissected. In the sham-operation group, the renal pedicle was only exposed without clamping; in the modeling group, the left kidney renal pedicle was clamped with a non-invasive miniature arterial clamp for 30 min, and the mice were placed on a thermostat plate at 37° C. to maintain a constant body temperature during the clamping period, and the surgical incision was covered with saline-impregnated gauze to prevent dehydration of the renal tissue. The arterial clamp was removed after 30 min, and it was observed that the kidney changed gradually from purple-black to bright red within 1 min, indicating successful blood reperfusion. The kidney was returned to its original position and the wound was sutured. The mice in the modeling group were randomly divided into 2 groups: a UIRI group (a model group) and a treatment group of the potassium salt crystal form B of WYQ (5 mg/kg), 5 mice in each group.\nThe first gavage administration was started 2 hours after the operation.\n(2) treatment group of the potassium salt crystal form B of WYQ: the potassium salt crystal form B of WYQ was diluted into a 1 mg/ml solution with normal saline and administered by gavage at the dose of 5 mg·kg^−1·d^−1; and\nadministered once a day for consecutive 10 days.\nOn the 10th after operation, mice were anesthetized in the same way, the right dorsum was incised to expose the right kidney, and the renal pedicle was ligated before removing the right kidney. The mice in the sham-operation group were only stripped of the perirenal membrane without removing the right kidney. On the 11th after operation, all the mice were sacrificed, the abdominal cavity was opened, and the left kidney tissues of the mice were peeled off, caring to maintain the integrity of the kidney. After the kidney is taken out, the kidney is quickly transferred to pre-chilled PBS, and the kidney is cut for different tests. The kidney is divided into four parts with a scalpel, wherein the upper and lower ventral poles of the kidney were put into liquid nitrogen for extraction of protein and mRNA, and detection of changes in the expression amount of fibrosis-related factors proteins and genes. After 2 hours, the kidney tissue was transferred and stored in the refrigerator at −80° C. The dorsal side of the kidney was fixed in 4% paraformaldehyde for making paraffin sections. The morphological changes of the kidney tissue were observed by HE staining and Masson staining, and the changes of the expression of fibrosis marker proteins in the kidney tissues were observed by immunohistochemistry."}, "[2]": {"tested_on": "rats with isoproterenol-induced myocardial hypertrophy", "assay": "Isoproterenol-induced myocardial hypertrophy in rats", "format": "in vivo, SD rats", "conditions": "Iso rats, 2 mg·kg^−1·d^−1 gavage, 7 days", "experimental": "SD rats were randomly divided into 3 groups, 10 rats/group: a normal control group (CON); an isoproterenol-induced myocardial hypertrophy model group (Iso); an Iso+the potassium salt crystal form B of WYQ treatment group (hereafter referred to as a treatment group).\nIsoproterenol was prepared into a 4 mg/ml medicinal solution with double-distilled water, which was ready to be used. The normal control group was injected with normal saline (5 mg/kg) subperitoneally, and the rest of the groups were injected with isoproterenol (5 mg/kg) subperitoneally once a day for 7 consecutive days.\nTreatment group: the potassium salt crystal form B of WYQ was prepared into a 0.4 mg/ml medicinal solution with normal saline (ready to use) and administered by gavage at a dose of 2 mg·kg^−1·d^−1; and\nthe day of injection was the starting date of the experiment, and the administration was started 2 hours after the modeling, once a day for 7 consecutive days.\nAfter 7 days from the starting date of the experiment, the left ventricle was intubated retrogradely through the right common carotid artery, and the hemodynamic indexes of each group of rats were collected on the RM-6240E polygraph, including the left ventricular pressure (LVP) and the rate of ventricular pressure change (dp/dt).\nOne week after the starting date of the experiment, the animals were anesthetized and hemodynamically tested (RM-6240E polygraph). The animals were sacrificed after pressure measurement. The heart tissues were immediately dissected and rinsed in frozen normal saline to remove blood. The heart was weighed quickly, and the left and right atria are cut along the atrio-ventricular junction with ophthalmic scissors. The left ventricle was separated, and absorbed water with filter paper, weighed, and put into liquid nitrogen for extraction of protein and mRNA to detect changes in the expression of hypertrophy-related factor genes. After 2 hours, the left ventricle tissue was transferred to a refrigerator at −80° C. for freezing and storage. After completing the above operations, the leg skin and muscles of the rats were cut with surgical scissors to fully expose the tibia, and the length of the tibia was measured. The myocardial hypertrophy index of rats was expressed by a heart-tibia length (HW-Tibia)."}},
  "data": [
    {"smiles": "CCCCOC(=O)[N-]S(=O)(=O)c1cccc(-c2nc3c(CCC)nn(C)c3c(=O)[nH]2)c1.[K+]", "note": "[potassium salt crystal form B]", "values": [
      {"measurement": "time at which the peak drug concentration was reached", "setting": "[1]", "result": "0.63 ± 0.12", "unit": "h"},
      {"measurement": "AUC(0-t)", "setting": "[1]; rat, blood, po, read-out: AUC(0-4) within 8 h after administration", "result": "639 ± 72.4", "unit": "ng·h/mL"},
      {"measurement": "Cmax", "setting": "[1]; rat, blood, po, read-out: maximum drug concentration (Cmax)", "result": "334 ± 23.7", "unit": "ng/mL"},
      {"measurement": "half-life", "setting": "[1]; rat, blood, po, read-out: oral half-life (t112) (converted)", "result": "138 ± 16.2", "unit": "min"},
      {"measurement": "AUC(0-inf)", "setting": "[1]; rat, blood, po, read-out: total area under the mean blood drug concentration-time curve AUC0-∞", "result": "650 ± 70.8", "unit": "ng·h/mL"},
      {"measurement": "Collagen I protein expression in kidney tissue (Western Blot) vs UIRI model", "setting": "UIRI model mice", "result": "significantly reduced"},
      {"measurement": "FN1 protein expression in kidney tissue (Western Blot) vs UIRI model", "setting": "UIRI model mice", "result": "significantly reduced"},
      {"measurement": "FN1 protein expression level in renal fibrotic lesions (immunohistochemistry)", "setting": "UIRI model mice", "result": "significantly reduced"},
      {"measurement": "PAI-1 protein expression in kidney tissue (Western Blot) vs UIRI model", "setting": "UIRI model mice", "result": "significantly reduced"},
      {"measurement": "α-SMA protein expression in kidney tissue (Western Blot) vs UIRI model", "setting": "UIRI model mice", "result": "significantly reduced"},
      {"measurement": "α-SMA protein expression level in renal fibrotic lesions (immunohistochemistry)", "setting": "UIRI model mice", "result": "significantly reduced"},
      {"measurement": "extracellular matrix deposition in the kidneys", "setting": "UIRI model mice; HE/Masson staining", "result": "decreased"},
      {"measurement": "inflammatory cell infiltration in the kidneys", "setting": "UIRI model mice; HE/Masson staining", "result": "significantly reduced"},
      {"measurement": "BNP gene expression in heart tissue vs model group", "setting": "[2]", "result": "significantly decreased"},
      {"measurement": "HW-Tibia ratio vs model group", "setting": "[2]", "result": "significantly reduced"},
      {"measurement": "Max dp/dt vs model group", "setting": "[2]", "result": "significantly higher"},
      {"measurement": "Min dp/dt vs model group", "setting": "[2]", "result": "significantly higher"},
      {"measurement": "expression of ANP gene in left heart tissue vs model group", "setting": "[2]", "result": "significantly decreased"},
      {"measurement": "expression of ANP protein in left heart tissue vs model group", "setting": "[2]", "result": "significantly decreased"},
      {"measurement": "left ventricle-tibia length ratio vs model group", "setting": "[2]", "result": "significantly reduced"},
      {"measurement": "left ventricular pressure (LVP) vs model group", "setting": "[2]", "result": "significantly higher"}
    ]}
  ]
}
